Measurements from ChEMBL document CHEMBL4425168, “Dehydrozingerone Inspired Styryl Hydrazine Thiazole Hybrids as Promising Class of Antimycobacterial Agents” (ACS Med Chem Lett, 2016).
In brackets after ≈: the same amount, converted by molar mass.

Key:
Type in all cases: functional, organism-based
[1] = tested on: Mycobacterium tuberculosis; experiment: Antitubercular activity against Mycobacterium tuberculosis H37Rv INH-R1 harboring katG Y155 mutant after 5 days
[2] = tested on: Mycobacterium tuberculosis; experiment: Antitubercular activity against Mycobacterium tuberculosis H37Rv FQ-R1 harboring gyrB D94N mutant after 5 days
[3] = tested on: Mycobacterium tuberculosis; experiment: Antitubercular activity against Mycobacterium tuberculosis H37Rv RIF-R1 harboring nrpoB S522L mutant after 5 days

## NNC(=O)c1ccncc1 [ISONIAZID]
[1]
  IC50: > 200 µM
  IC90: > 200 µM
  MIC: >200 µM
[2]
  IC50: 0.36 µM
  IC90: 0.47 µM
  MIC: 0.35 µM (≈ 0.048 µg/mL)
[3]
  IC50: 0.15 µM
  IC90: 0.21 µM
  MIC: 0.17 µM (≈ 0.0233 µg/mL)

## COc1ccc(-c2csc(N/N=C(C)/C=C/c3ccc(OC)c(OC)c3)n2)cc1
[1]
  IC50: 12 µM
  IC90: > 50 µM
  MIC: 15 µM (≈ 6.14 µg/mL)
[2]
  IC50: 23 µM
  IC90: > 50 µM
  MIC: 22 µM (≈ 9.01 µg/mL)
[3]
  IC50: 11 µM
  IC90: > 50 µM
  MIC: 25 µM (≈ 10.2 µg/mL)

## COc1ccc(/C=C/C(C)=N/NC(N)=S)cc1OC
[1]
  IC50: 1.3 µM
  IC90: 6.6 µM
  MIC: 5.3 µM (≈ 1.48 µg/mL)
[2]
  IC50: 2.8 µM
  IC90: 16 µM
  MIC: 17 µM (≈ 4.75 µg/mL)
[3]
  IC50: 1.1 µM
  IC90: 4.6 µM
  MIC: 4 µM (≈ 1.12 µg/mL)

## CO[C@H]1/C=C/O[C@@]2(C)Oc3c(C)c(O)c4c(O)c(c(/C=N/N5CCN(C)CC5)c(O)c4c3C2=O)NC(=O)/C(C)=C\C=C\[C@H](C)[C@H](O)[C@@H](C)[C@@H](O)[C@@H](C)[C@H](OC(C)=O)[C@@H]1C [RIFAMPIN]
[1]
  IC50: 0.0084 µM
  IC90: 0.022 µM
  MIC: 0.018 µM (≈ 0.0148 µg/mL)
[2]
  IC50: 0.013 µM
  IC90: 0.039 µM
  MIC: 0.027 µM (≈ 0.0222 µg/mL)
[3]
  IC50: 1.2 µM
  IC90: 2.3 µM
  MIC: 2 µM (≈ 1.65 µg/mL)

## COc1ccc(/C=C/C(C)=N/Nc2nc(-c3ccc(OC)c(OC)c3)cs2)cc1OC
[1]
  IC50: 12 µM
  IC90: > 200 µM
  MIC: 24 µM (≈ 10.5 µg/mL)
[2]
  IC50: 18 µM
  IC90: > 200 µM
  MIC: 30 µM (≈ 13.2 µg/mL)
[3]
  IC50: 9.2 µM
  IC90: 27 µM
  MIC: 28 µM (≈ 12.3 µg/mL)

## COc1ccc(/C=C/C(C)=N/Nc2nc(-c3c(OC)cccc3OC)cs2)cc1OC
[1]
  IC50: 9.1 µM
  IC90: > 25 µM
  MIC: 32 µM (≈ 14.1 µg/mL)
[2]
  IC50: 13 µM
  IC90: > 25 µM
  MIC: 33 µM (≈ 14.5 µg/mL)
[3]
  IC50: 7 µM
  IC90: 19 µM
  MIC: 17 µM (≈ 7.47 µg/mL)

## C[C@H]1COc2c(N3CCN(C)CC3)c(F)cc3c(=O)c(C(=O)O)cn1c23.C[C@H]1COc2c(N3CCN(C)CC3)c(F)cc3c(=O)c(C(=O)O)cn1c23.O [LEVOFLOXACIN]
[1]
  IC50: 0.64 µM
  IC90: 1.4 µM
  MIC: 1.2 µM
[2]
  IC50: 12 µM
  IC90: 22 µM
  MIC: 20 µM
[3]
  IC50: 0.59 µM
  IC90: 0.91 µM
  MIC: 0.76 µM

## COc1ccc(/C=C/C(C)=N/Nc2nc(-c3ccc(N)cc3)cs2)cc1OC
[1]
  IC50: 0.68 µM
  IC90: 3.8 µM
  MIC: 3.2 µM (≈ 1.26 µg/mL)
[2]
  IC50: 2.3 µM
  IC90: 33 µM
  MIC: 21 µM (≈ 8.28 µg/mL)
[3]
  IC50: 0.54 µM
  IC90: 2.6 µM
  MIC: 2.2 µM (≈ 0.868 µg/mL)
